How the values were obtained:
[1] = biological target: T1, human type 1 prolyl 4-hydroxylase tetramer (α12β2) (Homo sapiens, UniProt P13674); assay: Prolyl 4-hydroxylase activity assay (decarboxylation of 2-oxo[1-14C]glutarate), type 1 enzyme; type: biochemical; conditions: α12β2, recombinant enzyme from insect cells, 0.1% Triton X-100 extract
T1 construct: made in house; host or cells: Spodoptera frugiperda Sf9 insect cells (baculovirus co-infection); 0.1% Triton X-100 extract
Method: (§1) A recombinant baculovirus coding for the mouse α2 subunit was generated and used to infect S. frugiperda insect cells with or without the human PDI/β subunit, wherein the insect cells were infected at a multiplicity of 5. For production of an enzyme tetramer, the human α59 1 (see, Vuori, et al., supra) or mouse α2 viruses and the PDI/β viruses (id.) were used in a 1:1 or 2:1 ratio. […] The resulting supematants were analyzed by SDS/8% PAGE or nondenaturing 7.5% PAGE and assayed for enzyme activities. The cell pellets were further solubilized in 1% SDS, and the 0.1% Triton X-100-soluble and 1% SDS-soluble proteins were analyzed by SDS/PAGE under reducing for the α1 subunit of prolyl 4-hydroxylase (Veijola et al., supra; Vuori et al., supra; John et al. […] The 0.1% Triton X-100 extracts from cell homogenates containing either the mouse-human type II or the human type I enzyme were analyzed for prolyl 4-hydroxylase activity with an assay based on the hydroxylation-coupled decarbosylation of 2-oxo[1^14C]glutarate (Kivirikko and Myllyla, supra).

[2] = biological target: T2, mouse/human type 2 prolyl 4-hydroxylase tetramer (α22β2) (Mus musculus, UniProt Q60716); assay: Prolyl 4-hydroxylase activity assay (decarboxylation of 2-oxo[1-14C]glutarate), type 2 enzyme; type: biochemical; conditions: for IC50: α22β2, footnote: values determined as IC50, read-out: Ki column, values determined as IC50
T2 construct: the cDNA clones, considered in combination, cover the whole coding region of the mouse α2 subunit; made in house; host or cells: Spodoptera frugiperda Sf9 insect cells (baculovirus pVL1392 construct, co-infection with PDI/β virus); 0.1% Triton X-100 extract
T2 sequence (Q60716 20-537 limits assumed): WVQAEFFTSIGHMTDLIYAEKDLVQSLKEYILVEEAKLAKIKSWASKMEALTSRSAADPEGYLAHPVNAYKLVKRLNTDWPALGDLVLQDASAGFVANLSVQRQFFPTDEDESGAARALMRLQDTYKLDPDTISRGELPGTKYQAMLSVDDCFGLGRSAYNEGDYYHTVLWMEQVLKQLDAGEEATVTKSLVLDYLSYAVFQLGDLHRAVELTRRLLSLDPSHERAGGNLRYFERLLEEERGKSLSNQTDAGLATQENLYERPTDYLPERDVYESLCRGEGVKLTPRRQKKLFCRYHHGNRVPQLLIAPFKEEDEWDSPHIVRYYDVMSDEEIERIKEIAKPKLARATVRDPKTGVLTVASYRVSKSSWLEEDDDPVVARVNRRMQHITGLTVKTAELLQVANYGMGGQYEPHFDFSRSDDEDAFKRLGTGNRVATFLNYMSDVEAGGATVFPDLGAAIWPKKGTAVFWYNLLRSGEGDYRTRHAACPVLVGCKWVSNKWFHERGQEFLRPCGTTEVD
T2 sequence (P07237 18-508 partner): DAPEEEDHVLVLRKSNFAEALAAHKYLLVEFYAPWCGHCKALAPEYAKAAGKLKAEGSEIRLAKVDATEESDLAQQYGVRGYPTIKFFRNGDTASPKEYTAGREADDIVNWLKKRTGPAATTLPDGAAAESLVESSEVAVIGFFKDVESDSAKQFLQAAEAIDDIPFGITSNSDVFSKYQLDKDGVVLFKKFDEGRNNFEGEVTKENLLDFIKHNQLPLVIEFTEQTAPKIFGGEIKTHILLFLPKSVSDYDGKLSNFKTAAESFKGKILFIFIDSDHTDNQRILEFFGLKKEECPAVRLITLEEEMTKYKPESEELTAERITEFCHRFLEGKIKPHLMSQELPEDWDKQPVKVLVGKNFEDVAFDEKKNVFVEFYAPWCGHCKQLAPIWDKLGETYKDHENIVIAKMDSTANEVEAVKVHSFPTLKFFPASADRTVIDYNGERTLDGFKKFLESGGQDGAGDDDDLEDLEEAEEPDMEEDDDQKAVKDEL
Method: as §1

[3] = α22β2 (mouse α2, human PDI/β), recombinant enzyme from insect cells

T1 sequence (P13674 18-534): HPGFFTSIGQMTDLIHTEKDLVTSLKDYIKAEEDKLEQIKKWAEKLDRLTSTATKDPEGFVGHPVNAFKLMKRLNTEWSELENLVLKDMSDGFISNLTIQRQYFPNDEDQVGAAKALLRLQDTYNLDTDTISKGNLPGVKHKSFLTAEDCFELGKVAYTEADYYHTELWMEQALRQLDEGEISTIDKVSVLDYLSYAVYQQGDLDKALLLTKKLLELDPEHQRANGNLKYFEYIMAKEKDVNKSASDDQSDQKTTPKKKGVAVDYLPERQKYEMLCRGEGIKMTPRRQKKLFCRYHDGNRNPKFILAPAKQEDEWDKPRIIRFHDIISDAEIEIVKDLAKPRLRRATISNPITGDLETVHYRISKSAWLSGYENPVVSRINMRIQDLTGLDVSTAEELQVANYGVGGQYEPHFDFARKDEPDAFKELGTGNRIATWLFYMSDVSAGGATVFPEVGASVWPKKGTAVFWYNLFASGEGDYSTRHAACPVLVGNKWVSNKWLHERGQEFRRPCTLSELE
T1 sequence (P07237 18-508 partner): as the sequence (P07237 18-508 partner) above

Compound | Ki [1] [nM] | Km [1] [µM] | Km [2, 3] [µM] | further results
Poly(t-proline), Mt 7000 | 500 | – | – | IC50 [2]: 300000 nM
O=C(O)c1ccnc(C(=O)O)c1 [Pyridine-2,4-dicarboxylate] | 2000 | – | – | Ki [2, 3]: 1000 nM
Poly(t-proline), Mt 44,000 | 20 | – | – | IC50 [2]: 30000 nM
(Pro-Pro-Gly)10 [(Pro--Pro--Gly)] | – | 18 | 45 | –
O=C(O)CCC(=O)C(=O)O [2-Oxoglutatrate, 2-oxoglutarate] | – | 22 | 12 | –
[Fe+2] [Fe^2+] | – | 4 | 4 | –
poly (L-proline) | – | – | – | inhibition of the type 2 enzyme ([2]; type 2 enzyme compared with type 1): inhibited by poly (L-proline) only at very high concentrations

From US20020177203A1, “Alpha2 subunit of prolyl 4-hydroxylase” (priority 1996, published 2002)
